The supplement of paper PMC10307832

How the values were obtained:
Experiment in all cases: relative viability (nuclei count vs DMSO), 5 days (fraction); higher = more cells survive
A-427 = test system: A-427
In short: (§1)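 Lung cancer cell lines in 1536-well plates were dosed by pin tool the day after seeding, either with one drug alone or with a fixed anchor-drug dose plus five library-drug doses (not always all listed) in √10 steps. After 5 days, cells were fixed and their nuclei stained in one step (final 0.05% Triton X-100, 1% formaldehyde, 1 ug/ml Hoechst), then counted on 4× images. Relative viability is the nuclei count in treated wells divided by that in vehicle wells. Values are medians of duplicate plates.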

BEN = test system: BEN
In short: as §1

HARA = test system: HARA
In short: as §1

LCLC-97TM1 = test system: LCLC-97TM1
In short: as §1

LOU-NH91 = test system: LOU-NH91
In short: as §1

LU99A = test system: LU99A
In short: as §1

LXF-289 = test system: LXF-289
In short: as §1

NCI-H1395 = test system: NCI-H1395
In short: as §1

NCI-H1666 = test system: NCI-H1666
In short: as §1

NCI-H1755 = test system: NCI-H1755
In short: as §1

NCI-H1793 = test system: NCI-H1793
In short: as §1

NCI-H1915 = test system: NCI-H1915
In short: as §1

NCI-H1944 = test system: NCI-H1944
In short: as §1

NCI-H2023 = test system: NCI-H2023
In short: as §1

NCI-H2126 = test system: NCI-H2126
In short: as §1

NCI-H2170 = test system: NCI-H2170
In short: as §1

NCI-H23 = test system: NCI-H23
In short: as §1

NCI-H322M = test system: NCI-H322M
In short: as §1

NCI-H441 = test system: NCI-H441
In short: as §1

NCI-H460 = test system: NCI-H460
In short: as §1

NCI-H650 = test system: NCI-H650
In short: as §1

PC-3 [JPC-3] = test system: PC-3 [JPC-3]
In short: as §1

SK-LU-1 = test system: SK-LU-1
In short: as §1

Q: How did the relative viability (A-427; first compound 5 µM) turn out when `O=C(O)CCCCC(CCSCc1ccccc1)SCc1ccccc1` (centres undefined) [CPI-613] + CCNC(=O)c1noc(-c2cc(C(C)C)c(O)cc2O)c1-c1ccc(CN2CCOCC2)cc1 [Luminespib] (partner 0.01 µM) was run?
A: 0.85

Q: What about the relative viability (A-427; first compound 15.81 µM) of the same compound?
A: 0.938

Q: What about the relative viability (A-427; first compound 50 µM) of the same compound?
A: 0.761

Q: And the relative viability (A-427; first compound 158.11 µM)?
A: 0.512

Q: And the relative viability (A-427; first compound 500 µM)?
A: 0.126

Q: And the relative viability (BEN; first compound 5 µM)?
A: 0.619

Q: What about the relative viability (BEN; first compound 15.81 µM) of the same compound?
A: 0.362

Q: What about the relative viability (BEN; first compound 50 µM) of the same compound?
A: 0.484

Q: What about the relative viability (BEN; first compound 158.11 µM) of the same compound?
A: 0.292

Q: What about the relative viability (BEN; first compound 500 µM) of the same compound?
A: 0.149

Q: And the relative viability (HARA; first compound 15.81 µM)?
A: 0.635

Q: What about the relative viability (HARA; first compound 50 µM) of the same compound?
A: 0.757

Q: And the relative viability (HARA; first compound 158.11 µM)?
A: 0.297

Q: And the relative viability (HARA; first compound 500 µM)?
A: 0.0024

Q: And the relative viability (LCLC-97TM1; first compound 5 µM)?
A: 0.641

Q: And the relative viability (LCLC-97TM1; first compound 15.81 µM)?
A: 0.71

Q: And the relative viability (LCLC-97TM1; first compound 50 µM)?
A: 0.737

Q: And the relative viability (LCLC-97TM1; first compound 158.11 µM)?
A: 0.188

Q: And the relative viability (LCLC-97TM1; first compound 500 µM)?
A: 0.0176

Q: What about the relative viability (LOU-NH91; first compound 5 µM) of the same compound?
A: 0.344

Q: What about the relative viability (LOU-NH91; first compound 15.81 µM) of the same compound?
A: 0.325

Q: What about the relative viability (LOU-NH91; first compound 50 µM) of the same compound?
A: 0.323

Q: What about the relative viability (LOU-NH91; first compound 158.11 µM) of the same compound?
A: 0.309

Q: And the relative viability (LOU-NH91; first compound 500 µM)?
A: 0.34

Q: And the relative viability (LU99A; first compound 5 µM)?
A: 0.296

Q: And the relative viability (LU99A; first compound 15.81 µM)?
A: 0.222

Q: And the relative viability (LU99A; first compound 50 µM)?
A: 0.243

Q: And the relative viability (LU99A; first compound 158.11 µM)?
A: 0.159

Q: What about the relative viability (LU99A; first compound 500 µM) of the same compound?
A: 0.115

Q: What about the relative viability (LXF-289; first compound 5 µM) of the same compound?
A: 0.611

Q: What about the relative viability (LXF-289; first compound 15.81 µM) of the same compound?
A: 0.535

Q: What about the relative viability (LXF-289; first compound 50 µM) of the same compound?
A: 0.657

Q: What about the relative viability (LXF-289; first compound 158.11 µM) of the same compound?
A: 0.206

Q: What about the relative viability (LXF-289; first compound 500 µM) of the same compound?
A: 0.0484

Q: And the relative viability (NCI-H1395; first compound 5 µM)?
A: 0.672

Q: And the relative viability (NCI-H1395; first compound 15.81 µM)?
A: 0.828

Q: What about the relative viability (NCI-H1395; first compound 50 µM) of the same compound?
A: 0.749

Q: What about the relative viability (NCI-H1395; first compound 158.11 µM) of the same compound?
A: 0.665

Q: And the relative viability (NCI-H1395; first compound 500 µM)?
A: 0.659

Q: What about the relative viability (NCI-H1666; first compound 5 µM) of the same compound?
A: 0.992

Q: And the relative viability (NCI-H1666; first compound 15.81 µM)?
A: 1.01

Q: And the relative viability (NCI-H1666; first compound 50 µM)?
A: 1.12

Q: What about the relative viability (NCI-H1666; first compound 158.11 µM) of the same compound?
A: 0.223

Q: And the relative viability (NCI-H1666; first compound 500 µM)?
A: 0.131

Q: What about the relative viability (NCI-H1755; first compound 5 µM) of the same compound?
A: 0.613

Q: What about the relative viability (NCI-H1755; first compound 15.81 µM) of the same compound?
A: 0.508

Q: And the relative viability (NCI-H1755; first compound 50 µM)?
A: 0.24

Q: What about the relative viability (NCI-H1755; first compound 158.11 µM) of the same compound?
A: 0.34

Q: And the relative viability (NCI-H1755; first compound 500 µM)?
A: 0.185

Q: What about the relative viability (NCI-H1793; first compound 5 µM) of the same compound?
A: 0.252

Q: And the relative viability (NCI-H1793; first compound 15.81 µM)?
A: 0.372

Q: What about the relative viability (NCI-H1793; first compound 50 µM) of the same compound?
A: 0.175

Q: What about the relative viability (NCI-H1793; first compound 158.11 µM) of the same compound?
A: 0.131

Q: What about the relative viability (NCI-H1793; first compound 500 µM) of the same compound?
A: 0.0028

Q: And the relative viability (NCI-H1915; first compound 5 µM)?
A: 0.746

Q: What about the relative viability (NCI-H1915; first compound 15.81 µM) of the same compound?
A: 0.841

Q: And the relative viability (NCI-H1915; first compound 50 µM)?
A: 0.675

Q: And the relative viability (NCI-H1915; first compound 158.11 µM)?
A: 0.161

Q: What about the relative viability (NCI-H1915; first compound 500 µM) of the same compound?
A: 0.0405

Q: And the relative viability (NCI-H1944; first compound 5 µM)?
A: 0.748

Q: What about the relative viability (NCI-H1944; first compound 15.81 µM) of the same compound?
A: 0.701

Q: What about the relative viability (NCI-H1944; first compound 50 µM) of the same compound?
A: 0.757

Q: What about the relative viability (NCI-H1944; first compound 158.11 µM) of the same compound?
A: 0.409

Q: What about the relative viability (NCI-H1944; first compound 500 µM) of the same compound?
A: 0.0599

Q: And the relative viability (NCI-H2023; first compound 5 µM)?
A: 0.791

Q: What about the relative viability (NCI-H2023; first compound 15.81 µM) of the same compound?
A: 0.692

Q: And the relative viability (NCI-H2023; first compound 50 µM)?
A: 0.736

Q: And the relative viability (NCI-H2023; first compound 158.11 µM)?
A: 0.052

Q: And the relative viability (NCI-H2023; first compound 500 µM)?
A: 0.0128

Q: And the relative viability (NCI-H2126; first compound 5 µM)?
A: 0.906

Q: What about the relative viability (NCI-H2126; first compound 15.81 µM) of the same compound?
A: 0.83

Q: What about the relative viability (NCI-H2126; first compound 50 µM) of the same compound?
A: 0.85

Q: What about the relative viability (NCI-H2126; first compound 158.11 µM) of the same compound?
A: 0.223

Q: And the relative viability (NCI-H2126; first compound 500 µM)?
A: 0.053

Q: What about the relative viability (NCI-H2170; first compound 5 µM) of the same compound?
A: 0.754

Q: And the relative viability (NCI-H2170; first compound 15.81 µM)?
A: 0.573

Q: What about the relative viability (NCI-H2170; first compound 50 µM) of the same compound?
A: 0.524

Q: What about the relative viability (NCI-H2170; first compound 158.11 µM) of the same compound?
A: 0.196

Q: What about the relative viability (NCI-H2170; first compound 500 µM) of the same compound?
A: 0.0909

Q: What about the relative viability (NCI-H23; first compound 5 µM) of the same compound?
A: 0.224

Q: And the relative viability (NCI-H23; first compound 15.81 µM)?
A: 0.222

Q: And the relative viability (NCI-H23; first compound 50 µM)?
A: 0.234

Q: And the relative viability (NCI-H23; first compound 158.11 µM)?
A: 0.129

Q: And the relative viability (NCI-H23; first compound 500 µM)?
A: 0.0632

Q: What about the relative viability (NCI-H322M; first compound 5 µM) of the same compound?
A: 0.777

Q: What about the relative viability (NCI-H322M; first compound 15.81 µM) of the same compound?
A: 0.781

Q: And the relative viability (NCI-H322M; first compound 50 µM)?
A: 0.826

Q: What about the relative viability (NCI-H322M; first compound 158.11 µM) of the same compound?
A: 0.53

Q: And the relative viability (NCI-H322M; first compound 500 µM)?
A: 0.0612

Q: What about the relative viability (NCI-H441; first compound 5 µM) of the same compound?
A: 0.36

Q: What about the relative viability (NCI-H441; first compound 15.81 µM) of the same compound?
A: 0.38

Q: What about the relative viability (NCI-H441; first compound 50 µM) of the same compound?
A: 0.289

Q: And the relative viability (NCI-H441; first compound 158.11 µM)?
A: 0.124

Q: What about the relative viability (NCI-H441; first compound 500 µM) of the same compound?
A: 0.0495

Q: And the relative viability (NCI-H460; first compound 5 µM)?
A: 0.0325

Q: What about the relative viability (NCI-H460; first compound 15.81 µM) of the same compound?
A: 0.0279

Q: What about the relative viability (NCI-H460; first compound 50 µM) of the same compound?
A: 0.0372

Q: And the relative viability (NCI-H460; first compound 158.11 µM)?
A: 0.0145

Q: And the relative viability (NCI-H460; first compound 500 µM)?
A: 0.0162

Q: And the relative viability (NCI-H650; first compound 5 µM)?
A: 0.811

Q: And the relative viability (NCI-H650; first compound 15.81 µM)?
A: 0.732

Q: What about the relative viability (NCI-H650; first compound 50 µM) of the same compound?
A: 0.852

Q: And the relative viability (NCI-H650; first compound 158.11 µM)?
A: 0.69

Q: What about the relative viability (NCI-H650; first compound 500 µM) of the same compound?
A: 0.613

Q: And the relative viability (PC-3 [JPC-3]; first compound 5 µM)?
A: 0.594

Q: What about the relative viability (PC-3 [JPC-3]; first compound 15.81 µM) of the same compound?
A: 0.578

Q: What about the relative viability (PC-3 [JPC-3]; first compound 50 µM) of the same compound?
A: 0.627

Q: And the relative viability (PC-3 [JPC-3]; first compound 158.11 µM)?
A: 0.563

Q: And the relative viability (PC-3 [JPC-3]; first compound 500 µM)?
A: 0.48

Q: And the relative viability (SK-LU-1; first compound 5 µM)?
A: 0.205

Q: And the relative viability (SK-LU-1; first compound 15.81 µM)?
A: 0.2

Q: And the relative viability (SK-LU-1; first compound 50 µM)?
A: 0.198

Q: What about the relative viability (SK-LU-1; first compound 158.11 µM) of the same compound?
A: 0.128

Q: What about the relative viability (SK-LU-1; first compound 500 µM) of the same compound?
A: 0.101
